≈ marks a conversion by molar mass, not a printed value.
How the values were obtained:
Candida albicans = test: Antifungal activity against Candida albicans assessed as inhibition of visible growth after 48 hrs by agar dilution method; format: functional
Streptococcus pneumoniae = test: Antibacterial activity against Streptococcus pneumoniae assessed as inhibition of visible growth after 48 hrs by agar dilution method; format: functional
[1] = Cytotoxicity against african green monkey Vero C1008 cells at 0.01 to 0.1 ug/ml by neutral red uptake assay; format: cell-based; conditions: chlorocebus sabaeus
Aspergillus niger = test: Antifungal activity against Aspergillus niger assessed as inhibition of visible growth after 48 hrs by agar dilution method; format: functional
Escherichia coli = test: Antibacterial activity against Escherichia coli assessed as inhibition of visible growth after 48 hrs by agar dilution method; format: functional
[2] = system: Mycobacterium tuberculosis; test: Antitubercular activity against Mycobacterium tuberculosis H37Rv assessed as inhibition of colonies after 30 days by agar microdilution method; format: functional
Staphylococcus aureus = test: Antibacterial activity against Staphylococcus aureus assessed as inhibition of visible growth after 48 hrs by agar dilution method; format: functional
Aspergillus fumigatus = test: Antifungal activity against Aspergillus fumigatus assessed as inhibition of visible growth after 48 hrs by agar dilution method; format: functional

SMILES	MIC (Candida albicans) [µg/mL]	MIC (Streptococcus pneumoniae) [µg/mL]	Activity [1]	MIC (Aspergillus niger) [µg/mL]	MIC (Escherichia coli) [µg/mL]	MIC [2] [µg/mL]	MIC (Staphylococcus aureus) [µg/mL]	MIC (Aspergillus fumigatus) [µg/mL]
O=C1C(Cl)C(c2ccccc2)N1/N=C/CCn1nnc2ccccc21 (configuration not stated)	1 (≈ 2.83 µM)	0.5 (≈ 1.41 µM)	Non-toxic	1 (≈ 2.83 µM)	1 (≈ 2.83 µM)	> 12.5	1 (≈ 2.83 µM)	1 (≈ 2.83 µM)
O=C1C(Cl)C(c2ccccc2Cl)N1/N=C/CCn1nnc2ccccc21 (configuration not stated)	1 (≈ 2.58 µM)	0.1 (≈ 0.258 µM)	–	0.5 (≈ 1.29 µM)	0.1 (≈ 0.258 µM)	3.12 (≈ 8.05 µM)	0.5 (≈ 1.29 µM)	0.5 (≈ 1.29 µM)
O=C1C(Cl)C(c2ccc(Cl)cc2)N1/N=C/CCn1nnc2ccccc21 (configuration not stated)	0.5 (≈ 1.29 µM)	0.5 (≈ 1.29 µM)	–	1 (≈ 2.58 µM)	0.1 (≈ 0.258 µM)	> 3.12	0.1 (≈ 0.258 µM)	0.5 (≈ 1.29 µM)
O=C1C(Cl)C(c2ccccc2Br)N1/N=C/CCn1nnc2ccccc21 (configuration not stated)	1 (≈ 2.31 µM)	0.5 (≈ 1.16 µM)	–	0.5 (≈ 1.16 µM)	0.1 (≈ 0.231 µM)	> 3.12	0.1 (≈ 0.231 µM)	0.5 (≈ 1.16 µM)
O=C1C(Cl)C(c2cccc(Br)c2)N1/N=C/CCn1nnc2ccccc21 (configuration not stated)	0.5 (≈ 1.16 µM)	0.1 (≈ 0.231 µM)	–	0.1 (≈ 0.231 µM)	0.1 (≈ 0.231 µM)	6.25 (≈ 14.4 µM)	0.1 (≈ 0.231 µM)	0.1 (≈ 0.231 µM)
O=C1C(Cl)C(c2ccccc2[N+](=O)[O-])N1/N=C/CCn1nnc2ccccc21 (configuration not stated)	0.1 (≈ 0.251 µM)	0.1 (≈ 0.251 µM)	–	0.1 (≈ 0.251 µM)	0.5 (≈ 1.25 µM)	> 3.12	0.5 (≈ 1.25 µM)	0.1 (≈ 0.251 µM)
O=C1C(Cl)C(c2ccc([N+](=O)[O-])cc2)N1/N=C/CCn1nnc2ccccc21 (configuration not stated)	0.1 (≈ 0.251 µM)	0.5 (≈ 1.25 µM)	–	0.5 (≈ 1.25 µM)	0.5 (≈ 1.25 µM)	> 1.56	0.1 (≈ 0.251 µM)	0.5 (≈ 1.25 µM)
COc1ccccc1C1C(Cl)C(=O)N1/N=C/CCn1nnc2ccccc21 (configuration not stated)	0.1 (≈ 0.261 µM)	0.5 (≈ 1.3 µM)	–	0.1 (≈ 0.261 µM)	2 (≈ 5.21 µM)	> 6.25	1 (≈ 2.61 µM)	0.1 (≈ 0.261 µM)
COc1ccc(C2C(Cl)C(=O)N2/N=C/CCn2nnc3ccccc32)cc1 (configuration not stated)	0.1 (≈ 0.261 µM)	0.5 (≈ 1.3 µM)	–	0.1 (≈ 0.261 µM)	1 (≈ 2.61 µM)	> 12.5	1 (≈ 2.61 µM)	0.1 (≈ 0.261 µM)
CC[C@@H](CO)NCCN[C@@H](CC)CO [ETHAMBUTOL]	–	–	–	–	–	1 (≈ 4.89 µM)	–	–
Clc1ccc(COC(Cn2ccnc2)c2ccc(Cl)cc2Cl)c(Cl)c1 (configuration not stated) [MICONAZOLE]	0.1 (≈ 0.24 µM)	–	–	0.1 (≈ 0.24 µM)	–	–	–	0.1 (≈ 0.24 µM)
CC1COc2c(N3CCN(C)CC3)c(F)cc3c(=O)c(C(=O)O)cn1c23 (configuration not stated) [OFLOXACIN]	–	0.1 (≈ 0.277 µM)	–	–	0.1 (≈ 0.277 µM)	–	0.1 (≈ 0.277 µM)	–
CN[C@@H]1[C@H](O[C@H]2[C@H](O[C@H]3[C@H](O)[C@@H](O)[C@H](N=C(N)N)[C@@H](O)[C@@H]3N=C(N)N)O[C@@H](C)[C@]2(O)C=O)O[C@@H](CO)[C@H](O)[C@H]1O [STREPTOMYCIN]	–	–	–	–	–	4 (≈ 6.88 µM)	–	–

From ChEMBL document CHEMBL1641575, “Conventional and microwave assisted synthesis of 2-oxo-4-substituted aryl-azetidine derivatives of benzotriazole: a new class of biological compounds” (Bioorg Med Chem Lett, 2011)
